Here are results for 9 molecules from PubChem BioAssay (NCI).

Among the test systems are SN12C renal; CAKI-1 renal; SK-MEL-28 melanoma; SK-MEL-5 melanoma; SF-539 CNS; A498 renal; SNB-19 CNS; SF-268 CNS; SR leukemia; OVCAR-3 ovarian.
Test in all cases: NCI tumour cell line growth inhibition, 48 h

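Cultured in 96-well plates, cells were exposed to test compound for 48 hours across five concentrations. Here, GI50 denotes the concentration required for 50% inhibition of growth. TGI marks complete inhibition of growth.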

With `CN(CCCCCl)P(=O)(OCCS(=O)(=O)CC(NC(=O)CCC(N)C(=O)O)C(=O)NC(C(=O)O)c1ccccc1)OCC1OC(n2ccc(N)nc2=O)C(F)(F)C1O` (centres undefined), the GI50 with SN12C renal is 590 nM; in the test on CAKI-1 renal it was 43.8 nM; in the test on SK-MEL-28 melanoma, 5.06 µM; in the test on SK-MEL-5 melanoma, 484 nM; in the test on SF-539 CNS, 33.8 nM; in the test with A498 renal it was 0.943 µM. Besides, the GI50 in the test with SNB-19 CNS was 143 nM; in the test on SF-268 CNS it was 0.337 µM; in the test with SR leukemia, 303 nM; in the test on OVCAR-3 ovarian, 14.7 µM. The TGI in the test on SN12C renal was above 50.9 µM; in the test with CAKI-1 renal it was 5.8 µM; with SK-MEL-28 melanoma, above 100 µM; in the test with SK-MEL-5 melanoma it was above 100 µM; with SF-539 CNS it was 0.689 µM; with A498 renal it was above 100 µM. Moreover, the TGI was above 100 µM with SNB-19 CNS, above 100 µM with SF-268 CNS, 11 µM with SR leukemia and above 100 µM in the test with OVCAR-3 ovarian.

As for `CC1=CC(=O)CC2(C)CC[C@@H]3C[C@]12OC3(C)C` (some centres undefined), the TGI in the test with SN12C renal, in the test on CAKI-1 renal, in the test on SK-MEL-28 melanoma, in the test on SK-MEL-5 melanoma, in the test on SF-539 CNS and in the test on A498 renal was above 100 µM throughout. The TGI with SNB-19 CNS, with SF-268 CNS, in the test with SR leukemia and in the test on OVCAR-3 ovarian was above 100 µM throughout.

As for `C[C@@H]1C[C@H](C)CN(S(=O)(=O)c2ccc3c(NO)c4ccc(S(=O)(=O)N5C[C@H](C)C[C@H](C)C5)cc4c(N=O)c3c2)C1`, the GI50 was 170 nM in the test on SN12C renal; 335 nM in the test with CAKI-1 renal; 0.129 µM in the test on SK-MEL-28 melanoma; 250 nM in the test on SK-MEL-5 melanoma; 56.4 nM in the test with SF-539 CNS; 164 nM in the test with SNB-19 CNS. Further, the values for the GI50 in the test with SF-268 CNS, in the test on SR leukemia and with OVCAR-3 ovarian were 0.0252 µM, 36.7 nM and 0.182 µM, respectively. Also, the TGI in the test on SN12C renal is 0.399 µM; with CAKI-1 renal it was above 1 µM; in the test on SK-MEL-28 melanoma, 0.276 µM; in the test with SK-MEL-5 melanoma, 0.687 µM; in the test with SF-539 CNS, 0.207 µM; in the test on A498 renal it was above 1 µM. Moreover, the TGI turned out to be 0.353 µM in the test with SNB-19 CNS, 0.0698 µM in the test with SF-268 CNS, 0.215 µM in the test on SR leukemia and 0.328 µM in the test with OVCAR-3 ovarian.

In the case of `FC(F)(c1ccc2ncccc2c1)c1nnc2ccc(-c3ccncc3)nn12`, the GI50 in the test with SN12C renal was 37100 nM; in the test on CAKI-1 renal, 25100 nM; in the test with SK-MEL-28 melanoma, above 100 µM; in the test with SK-MEL-5 melanoma, 48500 nM; with SF-539 CNS it was 46400 nM; with A498 renal it was 19.3 µM. Moreover, the GI50 in the test with SNB-19 CNS is above 100000 nM; in the test with SF-268 CNS it was 66.5 µM; in the test on SR leukemia, above 100000 nM; with OVCAR-3 ovarian, above 100 µM. Besides, the TGI with SN12C renal, with CAKI-1 renal, in the test with SK-MEL-28 melanoma, with SK-MEL-5 melanoma, in the test on SF-539 CNS and in the test with A498 renal was above 100 µM throughout. The TGI in the test with SNB-19 CNS, with SF-268 CNS, in the test on SR leukemia and in the test with OVCAR-3 ovarian was above 100 µM in each case.

On to `O=C(Nc1cc(C(F)(F)F)ccc1Cl)c1ccc(NC2=C(Cl)C(=O)N(Cc3ccccc3)C2=O)cc1`, for which the GI50 is 19600 nM in the test with SN12C renal; 42600 nM in the test on CAKI-1 renal; 23.9 µM in the test on SK-MEL-28 melanoma; 18600 nM with SK-MEL-5 melanoma; 28900 nM in the test on SF-539 CNS; 69.9 µM with A498 renal. Further, the GI50 in the test with SNB-19 CNS was 30400 nM; in the test with SF-268 CNS it was 32.7 µM; in the test on SR leukemia, 1300 nM; with OVCAR-3 ovarian it was 19.1 µM. Besides, the TGI with SN12C renal was 61.2 µM; with CAKI-1 renal it was above 100 µM; in the test with SK-MEL-28 melanoma, 63.5 µM; with SK-MEL-5 melanoma it was 60.4 µM; with SF-539 CNS, 77.5 µM; in the test on A498 renal it was above 100 µM. In addition, the TGI in the test on SNB-19 CNS is above 100 µM; in the test on SF-268 CNS, above 100 µM; with SR leukemia, 4.4 µM; with OVCAR-3 ovarian, 46.1 µM.

With `COc1ccc(-c2ccncc2)cc1C(N)=O`, the GI50 was above 25000 nM with SN12C renal; above 25000 nM in the test on CAKI-1 renal; above 25 µM in the test on SK-MEL-28 melanoma; above 25000 nM with SK-MEL-5 melanoma; above 25000 nM in the test with SF-539 CNS; above 22.8 µM with A498 renal. In addition, the GI50 is above 25000 nM with SNB-19 CNS, above 25 µM with SF-268 CNS, above 25000 nM in the test with SR leukemia and above 25 µM with OVCAR-3 ovarian. Also, the TGI in the test with SN12C renal, in the test on CAKI-1 renal, in the test on SK-MEL-28 melanoma, in the test with SK-MEL-5 melanoma, with SF-539 CNS and with A498 renal was above 25 µM each time. The TGI in the test on SNB-19 CNS, with SF-268 CNS, with SR leukemia and in the test with OVCAR-3 ovarian was above 25 µM each time.

`NCCSSCCN`: the TGI in the test with SN12C renal, in the test on CAKI-1 renal, in the test with SK-MEL-28 melanoma, with SK-MEL-5 melanoma, with SF-539 CNS and in the test on A498 renal was above 100 µM in each case. The TGI in the test on SNB-19 CNS, with SF-268 CNS, with SR leukemia and in the test with OVCAR-3 ovarian was above 100 µM each time.

Regarding `CN(C)CCNc1ccc(CO)c2sc3ccc(O)cc3c(=O)c12`, the TGI is 15.4 µM with SN12C renal; above 25.9 µM with CAKI-1 renal; 19.1 µM in the test with SK-MEL-28 melanoma; 8.37 µM in the test on SK-MEL-5 melanoma; 6.9 µM in the test on SF-539 CNS; 20.4 µM with A498 renal. The TGI in the test on SNB-19 CNS was 11.9 µM; with SF-268 CNS, 8.82 µM; with SR leukemia, 0.78 µM; in the test on OVCAR-3 ovarian it was 23.5 µM.

Take `O=C1/C(=C/c2cccc(Br)c2)COc2ccc(O)cc21`: the GI50 with SN12C renal was 1850 nM; in the test on CAKI-1 renal it was 1830 nM; with SK-MEL-28 melanoma, 2.14 µM; with SK-MEL-5 melanoma, 1910 nM; in the test with SF-539 CNS, 1890 nM; with A498 renal, 11.6 µM. The GI50 in the test with SNB-19 CNS is 2430 nM; in the test with SF-268 CNS it was 3.33 µM; with SR leukemia it was 470 nM; with OVCAR-3 ovarian, 1.82 µM. Besides, the TGI in the test on SN12C renal was 4.28 µM; in the test with CAKI-1 renal it was 5.12 µM; in the test with SK-MEL-28 melanoma, 5.21 µM; in the test on SK-MEL-5 melanoma it was 4.35 µM; in the test with SF-539 CNS, 4.58 µM; in the test with A498 renal, 23.9 µM. Also, the TGI in the test on SNB-19 CNS came out at 7.47 µM; in the test on SF-268 CNS it was 18.2 µM; with SR leukemia it was 5.2 µM; in the test on OVCAR-3 ovarian it was 3.89 µM.
